Laboratory results from patent publication US6852696B2, “Inhibitors of glycosaminoglycans” (The University of Texas System, priority 1999, dated 2005).

Tested on: DC-associated HA
Test: Binding of biotinylated peptide to DC surfaces
Settings: biotinylated form
Method: FIGS. 8B-D. Synthesis and surface expression of HA by DC. (B) XS106 DC were labeled with ^3H-glucosamine and then examined for the incorporation of hyaluronidase-sensitive radioactivities (means+/−s.e.m.; n=5) into the indicated subcellular fractions. (C) XS106 DC were incubated with biotinylated Pep-1 or RP and then with PE-conjugated streptavidin (filed histograms) (Mummert et al. J. Exp. Med. 192:769-779, 2000) or bovine testis hyaluronidase. Baseline staining levels with PE-streptavidin alone are shown with open histograms. (D) The indicated DC preparations were examined for binding of biotinylated Pep-1 (filled) and RP (open). Peptide binding to splenic DC and bone marrow-DC was examined within the CD11c^+ populations.

For SATPASAPYPLA [RP, reference compound], the “binding to surfaces of XS106 DC” value was “no significant binding”.
